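Assay format: 96-well plates, 48-hour exposure. At the GI50, growth is halved.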 Calls of active or inactive are those of the source. Cut-off read from the data, not from the text of the source: active = GI50 up to about 1.1 µM and inactive = higher.
Legend:
Test in all cases: growth of human tumour cells (NCI), 48 h
OVCAR-3 = test system: OVCAR-3
T47D = test system: T47D
HOP-62 = test system: HOP-62
A549 = test system: A549
LOX IMVI = test system: LOX IMVI
Malme-3M = test system: Malme-3M
UACC-257 = test system: UACC-257
M14 = test system: M14
NCI-H23 = test system: NCI-H23
SF-539 = test system: SF-539
MOLT-4 = test system: MOLT-4
PC-3 = test system: PC-3
786-0 = test system: 786-0
CCRF-CEM = test system: CCRF-CEM
RXF 393 = test system: RXF 393
SK-MEL-5 = test system: SK-MEL-5
EKVX = test system: EKVX
HCC 2998 = test system: HCC 2998
NCI-H226 = test system: NCI-H226
SNB-75 = test system: SNB-75

| Compound | GI50 (OVCAR-3) | GI50 (T47D) | GI50 (HOP-62) | GI50 (A549) | GI50 (LOX IMVI) | GI50 (Malme-3M) | GI50 (UACC-257) | GI50 (M14) | GI50 (NCI-H23) | GI50 (SF-539) | GI50 (MOLT-4) | GI50 (PC-3) | GI50 (786-0) | GI50 (CCRF-CEM) | GI50 (RXF 393) | GI50 (SK-MEL-5) | GI50 (EKVX) | GI50 (HCC 2998) | GI50 (NCI-H226) | GI50 (SNB-75) |
| --- | --- | --- | --- | --- | --- | --- | --- | --- | --- | --- | --- | --- | --- | --- | --- | --- | --- | --- | --- | --- |
| CC(=O)N(C(C)=O)n1nc2c(n1)C(=O)c1ccccc1C2=O | 28.1 µM (inactive) | > 100 µM (inactive) | > 100 µM (inactive) | > 100 µM (inactive) | > 100 µM (inactive) | 68.1 µM (inactive) | 81.5 µM (inactive) | > 100 µM (inactive) | > 100 µM (inactive) | > 100 µM (inactive) | > 100 µM (inactive) | > 100 µM (inactive) | > 100 µM (inactive) | > 100 µM (inactive) | > 100 µM (inactive) | > 100 µM (inactive) | > 100 µM (inactive) |  |  |  |
| O=c1[nH]nc(Cn2c3ccc(Br)cc3c3nc4ccccc4nc32)n1C1CCCCC1 | 23.3 µM (inactive) | 57.9 µM (inactive) | 17.7 µM (inactive) | 43.6 µM (inactive) | < 0.01 µM (active) |  | 26.2 µM (inactive) | 35.1 µM (inactive) | 12.9 µM (inactive) | 13.3 µM (inactive) | < 0.01 µM (active) | 16.2 µM (inactive) | 25.2 µM (inactive) |  | 23.8 µM (inactive) | 36.9 µM (inactive) | 90.8 µM (inactive) | 54.6 µM (inactive) | 59.4 µM (inactive) | > 100 µM (inactive) |
| NC(=O)NNCc1ccccc1 | > 100 µM (inactive) | > 100 µM (inactive) | > 100 µM (inactive) | > 100 µM (inactive) | > 100 µM (inactive) |  | > 100 µM (inactive) | > 100 µM (inactive) | > 100 µM (inactive) | > 100 µM (inactive) | > 100 µM (inactive) | > 100 µM (inactive) | > 100 µM (inactive) | > 100 µM (inactive) | > 100 µM (inactive) | > 100 µM (inactive) | > 100 µM (inactive) | > 100 µM (inactive) | > 100 µM (inactive) |  |
| NC1CCCCC1.O=P(O)(O)C(O)/C=C/c1ccccc1 (stereo not drawn) | > 100 µM (inactive) | > 100 µM (inactive) | > 100 µM (inactive) | > 100 µM (inactive) | > 100 µM (inactive) | > 100 µM (inactive) | > 100 µM (inactive) | > 100 µM (inactive) | > 100 µM (inactive) |  | > 100 µM (inactive) | > 100 µM (inactive) | > 100 µM (inactive) |  | > 100 µM (inactive) | > 100 µM (inactive) | > 100 µM (inactive) | > 100 µM (inactive) | > 100 µM (inactive) | > 100 µM (inactive) |
| CCc1n[nH]c(=O)n1-n1c(C)ccc1C | > 100 µM (inactive) | > 100 µM (inactive) | > 100 µM (inactive) | > 100 µM (inactive) | > 100 µM (inactive) | > 100 µM (inactive) | > 100 µM (inactive) | > 100 µM (inactive) |  |  | > 100 µM (inactive) | > 100 µM (inactive) | > 100 µM (inactive) | > 100 µM (inactive) | > 100 µM (inactive) | > 100 µM (inactive) | > 100 µM (inactive) | > 100 µM (inactive) | > 100 µM (inactive) | > 100 µM (inactive) |
| O=c1c2ccccc2[nH]n1Cc1ccccc1 | > 100 µM (inactive) | > 100 µM (inactive) | > 100 µM (inactive) | > 100 µM (inactive) | > 100 µM (inactive) |  | > 100 µM (inactive) | > 100 µM (inactive) | > 100 µM (inactive) | > 100 µM (inactive) | > 100 µM (inactive) | > 100 µM (inactive) | > 100 µM (inactive) | > 100 µM (inactive) | > 100 µM (inactive) | > 100 µM (inactive) | > 100 µM (inactive) | > 100 µM (inactive) | > 100 µM (inactive) | > 100 µM (inactive) |
| O=C(CSc1nccc(=O)[nH]1)c1ccccc1 | 40.7 µM (inactive) | > 100 µM (inactive) | 63.1 µM (inactive) | > 100 µM (inactive) | 78.3 µM (inactive) | 82.4 µM (inactive) | > 100 µM (inactive) | > 100 µM (inactive) | > 100 µM (inactive) | 39.8 µM (inactive) | > 100 µM (inactive) | > 100 µM (inactive) | > 100 µM (inactive) |  | > 100 µM (inactive) | > 100 µM (inactive) | > 100 µM (inactive) |  |  | > 100 µM (inactive) |
| c1ccc(/N=C2\c3ccccc3CN2c2ccccn2)nc1 | > 100 µM (inactive) | 17.5 µM (inactive) | > 100 µM (inactive) | > 100 µM (inactive) | 96.2 µM (inactive) |  | > 100 µM (inactive) | > 100 µM (inactive) | 71.9 µM (inactive) | > 100 µM (inactive) | 54.6 µM (inactive) | 70.1 µM (inactive) | > 100 µM (inactive) |  | > 100 µM (inactive) | > 100 µM (inactive) | > 100 µM (inactive) | 37.8 µM (inactive) | > 100 µM (inactive) | 94.8 µM (inactive) |
| O=C(NCCN1CCCCC1)c1ccc(Br)cc1 | > 100 µM (inactive) | > 100 µM (inactive) | > 100 µM (inactive) | > 100 µM (inactive) | > 100 µM (inactive) | > 100 µM (inactive) | > 100 µM (inactive) | > 100 µM (inactive) | > 100 µM (inactive) |  | > 100 µM (inactive) | > 100 µM (inactive) | > 100 µM (inactive) |  | > 100 µM (inactive) | > 100 µM (inactive) | > 100 µM (inactive) | > 100 µM (inactive) |  | 54.3 µM (inactive) |
| CN(C)c1ccc(/C=C/C(=O)N[C@@H]2C(=O)N3[C@@H]2SC(C)(C)[C@@H]3C(=O)O)cc1 | > 100 µM (inactive) | > 100 µM (inactive) | > 100 µM (inactive) | > 100 µM (inactive) | > 100 µM (inactive) |  | > 100 µM (inactive) | > 100 µM (inactive) | > 100 µM (inactive) | > 100 µM (inactive) | > 100 µM (inactive) | > 100 µM (inactive) | > 100 µM (inactive) | > 100 µM (inactive) | > 100 µM (inactive) | > 100 µM (inactive) | > 100 µM (inactive) | > 100 µM (inactive) | > 100 µM (inactive) | > 100 µM (inactive) |
| Nc1ccnc2c1ncn2[C@H]1C[C@H](O)[C@@H](CO)O1 | > 100 µM (inactive) | > 100 µM (inactive) | > 100 µM (inactive) | > 100 µM (inactive) | > 100 µM (inactive) |  | > 100 µM (inactive) | > 100 µM (inactive) | > 100 µM (inactive) | > 100 µM (inactive) | > 100 µM (inactive) | > 100 µM (inactive) | > 100 µM (inactive) | > 100 µM (inactive) | > 100 µM (inactive) | > 100 µM (inactive) | > 100 µM (inactive) | > 100 µM (inactive) | > 100 µM (inactive) | > 100 µM (inactive) |
